In brackets after ≈: the same amount, converted by molar mass.
Columns and labels:
Msm. GyrB = biological target: T1, Msm. GyrB (Mycolicibacterium smegmatis, UniProt A0QNE0); assay: Msmegmatis GyrB enzyme assay (ATPase, malachite green phosphate detection); assay type: biochemical; details: read-out: Msm_GyrB IC50
T1 construct: 15 nM Msm; GyrB, 650 μM ATP, and compound in dimethyl sulfoxide
Description: Compounds may be tested for inhibition of GyrB ATPase activity using an ammonium molybdate/malachite green-based phosphate detection assay (Lanzetta, P. A., L. J. Alvarez, P. S. Reinach, and O. A. Candia, 1979, 100: 95-97; Innova Biosciences malachite green detection kit). Assays can be performed in multi-well plates in 50 μl reactions containing: 50 mM HEPES buffer pH 7.7, 250 mM potassium glutamate, 200 mM potassium chloride, 2 mM magnesium chloride, 2% glycerol, 1 mM 1,4-Dithio-DL-threitol, 0.005% Brij-35, 15 nM Msm. GyrB, 650 μM ATP, and compound in dimethyl sulfoxide. Reactions can be quenched with 12.5 μl of ammonium molybdate/malachite green detection reagent (Pi color lock gold & accelerator mix; Innova Biosciences), followed by the addition of 5 μl of stabilizer (Innova Biosciences) after 5 min of incubation.

M. tuberculosis = assay: Mycobacteria susceptibility testing, Microplate Alamar Blue Assay, Mtu MIC; assay type: cell-based, Mycobacterium tuberculosis (Mtu); details: Mycobacterium tuberculosis
Spn548 = assay: Bacterial susceptibility testing in liquid media, Spn548 MIC; details: Streptococcus pneumoniae, 24 h, read-out: Spn548 Mean MIC
Eco-tolC = assay: Bacterial susceptibility testing in liquid media, Eco-tolC MIC; details: Escherichia coli, read-out: Eco-tolC MIC

T1 sequence (A0QNE0 whole entry): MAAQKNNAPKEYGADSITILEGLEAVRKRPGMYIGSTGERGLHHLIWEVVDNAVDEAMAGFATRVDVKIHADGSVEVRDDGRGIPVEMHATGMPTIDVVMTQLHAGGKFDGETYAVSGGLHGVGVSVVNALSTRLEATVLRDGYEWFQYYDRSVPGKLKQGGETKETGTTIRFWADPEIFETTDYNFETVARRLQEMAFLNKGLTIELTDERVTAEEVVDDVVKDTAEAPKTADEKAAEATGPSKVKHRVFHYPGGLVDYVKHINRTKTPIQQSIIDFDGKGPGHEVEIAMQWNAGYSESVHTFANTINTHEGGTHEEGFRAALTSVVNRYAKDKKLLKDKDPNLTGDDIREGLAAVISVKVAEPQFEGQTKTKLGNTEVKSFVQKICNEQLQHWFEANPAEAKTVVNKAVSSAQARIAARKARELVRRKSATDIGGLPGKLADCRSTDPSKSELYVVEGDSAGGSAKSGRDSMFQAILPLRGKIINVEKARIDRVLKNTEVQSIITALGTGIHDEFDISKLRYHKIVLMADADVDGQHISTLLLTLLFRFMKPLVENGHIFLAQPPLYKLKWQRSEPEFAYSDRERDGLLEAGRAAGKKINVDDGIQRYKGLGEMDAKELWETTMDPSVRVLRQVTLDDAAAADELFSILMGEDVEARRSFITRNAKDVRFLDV

Row | SMILES | IC50 (Msm. GyrB) [nM] | MIC (M. tuberculosis) [µg/mL] | MIC (Spn548) [µg/mL] | MIC (Eco-tolC) [µg/mL]
1 | C=CCNC(=O)Nc1nc2cc(-c3cncc(C(=O)N4CCOCC4)c3)cnc2s1 [Example 25, 1-{6-[5-(morpholin-4-ylcarbonyl)pyridin-3-yl][1,3]thiazolo[5,4-b]pyridin-2-yl}-3-prop-2-en-1-ylurea] | 1440 | > 32 | > 32 | > 32
2 | C=CCNC(=O)Nc1nc2cc(-c3cncc(C(=O)NCC(C)C)c3)cnc2s1 [Example 26, N-(2-methylpropyl)-5-{2-[(prop-2-en-1-ylcarbamoyl)amino][1,3]thiazolo[5,4-b]pyridin-6-yl}pyridine-3-carboxamide] | 394 | > 32 | > 32 | > 32
3 | C=CCNC(=O)Nc1nc2cc(-c3cc[nH]n3)c(C)nc2s1 [Example 27, 1-[5-methyl-6-(1H-pyrazol-3-yl)[1,3]thiazolo[5,4-b]pyridin-2-yl]-3-prop-2-en-1-ylurea] | 1840 | 11.3 (≈ 36 µM) | 2 (≈ 6.36 µM) | > 22.6
4 | C=CCNC(=O)Nc1nc2cc(-c3cncnc3)c(OCCOC)nc2s1 [Example 30, 1-[5-(2-methoxyethoxy)-6-pyrimidin-5-yl[1,3]thiazolo[5,4-b]pyridin-2-yl]-3-prop-2-en-1-ylurea] | 60.3 | 2 (≈ 5.18 µM) | 0.152 (≈ 0.394 µM) | 0.609 (≈ 1.58 µM)
5 | C=CCNC(=O)Nc1nc2cc(-c3nc(C(=O)O)cs3)cnc2s1 [Example 31, 2-{2-[(prop-2-en-1-ylcarbamoyl)amino][1,3]thiazolo[5,4-b]pyridin-6-yl}-1,3-thiazole-4-carboxylic acid] | 8940 | > 32 | > 32 | > 32
6 | C=CCNC(=O)Nc1nc2cc(-c3cnccn3)cnc2s1 [Example 32, 1-prop-2-en-1-yl-3-(6-pyrazin-2-yl[1,3]thiazolo[5,4-b]pyridin-2-yl)urea] | 836 | > 32 | 32 (≈ 102 µM) | > 32
7 | C=CCNC(=O)Nc1nc2cc(-c3cncnc3)c(OCC(C)C)nc2s1 [Example 33, 1-[5-(2-methylpropoxy)-6-pyrimidin-5-yl[1,3]thiazolo[5,4-b]pyridin-2-yl]-3-prop-2-en-1-ylurea] | 18.4 | 1 (≈ 2.6 µM) | 0.0625 (≈ 0.163 µM) | 1 (≈ 2.6 µM)
8 | C=CCNC(=O)Nc1nc2cc(-c3cncnc3)c(OCc3ccccn3)nc2s1 [Example 34, 1-prop-2-en-1-yl-3-[5-(pyridin-2-ylmethoxy)-6-pyrimidin-5-yl[1,3]thiazolo[5,4-b]pyridin-2-yl]urea] | 28.1 | 1.41 (≈ 3.37 µM) | 0.0625 (≈ 0.149 µM) | 1 (≈ 2.38 µM)
9 | CCNC(=O)Nc1nc2cc(-c3cncnc3)c(OCCOC(C)C)nc2s1 [Example 35, 1-ethyl-3-{5-[2-(1-methylethoxy)ethoxy]-6-pyrimidin-5-yl[1,3]thiazolo[5,4-b]pyridin-2-yl}urea] | 28 | 0.354 (≈ 0.879 µM) | 0.0625 (≈ 0.155 µM) | 0.25 (≈ 0.621 µM)
10 | CCNC(=O)Nc1nc2cc(-c3cncnc3)c(OCCC(C)C)nc2s1 [Example 37, 1-ethyl-3-[5-(3-methylbutoxy)-6-pyrimidin-5-yl[1,3]thiazolo[5,4-b]pyridin-2-yl]urea] | 11.8 | < 0.25 | 0.0625 (≈ 0.162 µM) | 0.25 (≈ 0.647 µM)
11 | CCNC(=O)Nc1nc2cc(-c3cncnc3)c(OCCc3scnc3C)nc2s1 [Example 38, 1-ethyl-3-{5-[2-(4-methyl-1,3-thiazol-5-yl)ethoxy]-6-pyrimidin-5-yl[1,3]thiazolo[5,4-b]pyridin-2-yl}urea] | < 5.01 | 0.281 (≈ 0.636 µM) | 0.0625 (≈ 0.142 µM) | 0.125 (≈ 0.283 µM)
12 | CCNC(=O)Nc1nc2cc(-c3cncnc3)c(OCC(F)(F)F)nc2s1 [Example 39, 1-ethyl-3-[6-pyrimidin-5-yl-5-(2,2,2-trifluoroethoxy)[1,3]thiazolo[5,4-b]pyridin-2-yl]urea] | < 3.87 | 0.25 (≈ 0.628 µM) | 0.0625 (≈ 0.157 µM) | 0.354 (≈ 0.888 µM)
13 | CCNC(=O)Nc1nc2cc(-c3cccnc3)c(OCCOC(C)C)nc2s1 [Example 41, 1-ethyl-3-{5-[2-(1-methylethoxy)ethoxy]-6-pyridin-3-yl[1,3]thiazolo[5,4-b]pyridin-2-yl}urea] | 9.1 | 2 (≈ 4.98 µM) | 0.0784 (≈ 0.195 µM) | 5.02 (≈ 12.5 µM)
14 | CCNC(=O)Nc1nc2cc(-c3cncnc3)c(OCC(C)C)nc2s1 [Example 43, 1-ethyl-3-[5-(2-methylpropoxy)-6-pyrimidin-5-yl[1,3]thiazolo[5,4-b]pyridin-2-yl]urea] | 4.39 | 0.125 (≈ 0.336 µM) | 0.0727 (≈ 0.195 µM) | 0.582 (≈ 1.56 µM)
15 | CCNC(=O)Nc1nc2cc(-c3cncnc3)c(OCCOCC)nc2s1 [Example 46, 1-[5-(2-ethoxyethoxy)-6-pyrimidin-5-yl[1,3]thiazolo[5,4-b]pyridin-2-yl]-3-ethylurea] | 20 | 0.125 (≈ 0.322 µM) | 0.0625 (≈ 0.161 µM) | 0.25 (≈ 0.644 µM)
16 | C=CCOCCOc1nc2sc(NC(=O)NCC)nc2cc1-c1cncnc1 [Example 47, 1-ethyl-3-{5-[2-(prop-2-en-1-yloxy)ethoxy]-6-pyrimidin-5-yl[1,3]thiazolo[5,4-b]pyridin-2-yl}urea] | 17.1 | 0.125 (≈ 0.312 µM) | 0.0625 (≈ 0.156 µM) | 0.5 (≈ 1.25 µM)
17 | CCNC(=O)Nc1nc2cc(-c3ccc(F)nc3)c(OCCOC)nc2s1 [Example 48, 1-ethyl-3-[6-(6-fluoropyridin-3-yl)-5-(2-methoxyethoxy)[1,3]thiazolo[5,4-b]pyridin-2-yl]urea] | 4.51 | 0.707 (≈ 1.81 µM) | 0.0625 (≈ 0.16 µM) | 0.125 (≈ 0.319 µM)
18 | CCNC(=O)Nc1nc2cc(-c3cncnc3)c(OCC3CCOCC3)nc2s1 [Example 49, 1-ethyl-3-[6-pyrimidin-5-yl-5-(tetrahydro-2H-pyran-4-ylmethoxy)[1,3]thiazolo[5,4-b]pyridin-2-yl]urea] | < 2.54 | 0.0625 (≈ 0.151 µM) | 0.0625 (≈ 0.151 µM) | 0.125 (≈ 0.302 µM)
19 | CCNC(=O)Nc1nc2cc(-c3cncnc3)c(OCc3cscn3)nc2s1 [Example 50, 1-ethyl-3-[6-pyrimidin-5-yl-5-(1,3-thiazol-4-ylmethoxy)[1,3]thiazolo[5,4-b]pyridin-2-yl]urea] | < 2.54 | 0.25 (≈ 0.605 µM) | 0.0625 (≈ 0.151 µM) | 0.25 (≈ 0.605 µM)
20 | CCNC(=O)Nc1nc2cc(-c3cncnc3)c(OCC3CCCO3)nc2s1 (stereo not drawn) [Example 51, 1-ethyl-3-[6-pyrimidin-5-yl-5-(tetrahydrofuran-2-ylmethoxy)[1,3]thiazolo[5,4-b]pyridin-2-yl]urea] | 4.87 | 0.25 (≈ 0.624 µM) | 0.0625 (≈ 0.156 µM) | 0.125 (≈ 0.312 µM)
21 | CCNC(=O)Nc1nc2cc(-c3cncnc3)c(NCC3CCCO3)nc2s1 (stereo not drawn) [Example 52, 1-ethyl-3-{6-pyrimidin-5-yl-5-[(tetrahydrofuran-2-ylmethyl)amino][1,3]thiazolo[5,4-b]pyridin-2-yl}urea] | 7.88 | 1 (≈ 2.5 µM) | 0.125 (≈ 0.313 µM) | 4 (≈ 10 µM)
22 | CCNC(=O)Nc1nc2cc(-c3cncc(C(=O)OCC)c3)c(OCC3CCOC3)nc2s1 (stereo not drawn) [Example 53, ethyl 5-{2-[(ethylcarbamoyl)amino]-5-(tetrahydrofuran-3-ylmethoxy)[1,3]thiazolo[5,4-b]pyridin-6-yl}pyridine-3-carboxylate] | 62.2 | 2.83 (≈ 6 µM) | 0.0625 (≈ 0.133 µM) | 0.5 (≈ 1.06 µM)
23 | CCNC(=O)Nc1nc2cc(-c3cccc(/C=C/C(=O)O)c3)c(OCC3CCOC3)nc2s1 (stereo not drawn) [Example 55, (2E)-3-(3-{2-[(ethylcarbamoyl)amino]-5-(tetrahydrofuran-3-ylmethoxy)[1,3]thiazolo[5,4-b]pyridin-6-yl}phenyl)prop-2-enoic acid] | 35.2 | > 8 | 0.0625 (≈ 0.133 µM) | 2 (≈ 4.27 µM)
24 | CCNC(=O)Nc1nc2cc(-c3cncnc3)c(OC)nc2s1 [Example 56, 1-ethyl-3-(5-methoxy-6-pyrimidin-5-yl[1,3]thiazolo[5,4-b]pyridin-2-yl)urea] | 21.6 | 0.707 (≈ 2.14 µM) | 0.0625 (≈ 0.189 µM) | 0.5 (≈ 1.51 µM)
25 | CCNC(=O)Nc1nc2cc(N3CCC(O)C3)c(OCC3CCOC3)nc2s1 (stereo not drawn) [Example 58, 1-ethyl-3-(6-(3-hydroxypyrrolidin-1-yl)-5-((tetrahydrofuran-3-yl)methoxy)thiazolo[5,4-b]pyridin-2-yl)urea] | 2110 | > 8 | 4 (≈ 9.82 µM) | > 32
26 | CCNC(=O)Nc1nc2cc(-c3ccc(F)nc3)c(OCC3CCOCC3)nc2s1 [Example 59, 1-ethyl-3-[6-(6-fluoropyridin-3-yl)-5-(tetrahydro-2H-pyran-4-ylmethoxy)[1,3]thiazolo[5,4-b]pyridin-2-yl]urea] | < 4.83 | 0.5 (≈ 1.16 µM) | 0.125 (≈ 0.29 µM) | 1 (≈ 2.32 µM)
27 | CCNC(=O)Nc1nc2cc(-c3cncc(F)c3)c(OCC3CCOCC3)nc2s1 [Example 60, 1-ethyl-3-[6-(5-fluoropyridin-3-yl)-5-(tetrahydro-2H-pyran-4-ylmethoxy)[1,3]thiazolo[5,4-b]pyridin-2-yl]urea] | < 2.54 | 0.354 (≈ 0.819 µM) | 0.125 (≈ 0.29 µM) | 1 (≈ 2.32 µM)

Reference: patent US20100137303A1, “NEW COMPOUND 255” (AstraZeneca AB, priority 2008, published 2010)
